In patent publication US20110009332A1, “Therapeutic Treatment Of Wounds” (SOUTHWEST RESEARCH INSTITUTE, priority 2009, published 2011):
Where a SMILES comes first, the peptide text is derived from it. The star is where a group is joined. Cbz = O=C(OCc1ccccc1)*; OtBu = CC(C)(C)O*

System: BMP-2
Test: BMP-2 gene expression (qPCR, normalized over 18S) in human dermal fibroblasts
Type: cell-based
Procedure: An examination of gene expression of BMP-2 was conducted using a number of proteasome inhibitors including, proteasome inhibitor-1, curcumin, MG-132 and bortezomib. Human neonatal dermal fibroblasts (AllCells, Catalog No. HN006001) were maintained in Dulbecco's modified Eagle's medium (DMEM) supplemented with 10% fetal bovine serum. Early passage cells were plated at 2×10^4 cells/cm^2 and grown in humidified 5% CO2 at 37° C. for 24 hours. Spent media was replaced the following day with assay media including Proteasome inhibitor-1 was added in DMEM at 1 μM and 0.1 μM. Untreated cells were used as the control group. For the human osteogenesis PCR array, the experimental group was treated only at 1 μM.
Phenol-chloroform extraction was performed to isolate the total RNA for real time polymerase chain reaction array. More specifically, the total RNA was prepared using TRI REAGENT (Ambion, product number 9738), wherein the total RNA was obtained from the human neonatal dermal fibroblasts. Note that isolation was performed as per the instructions provided with the TRI REAGENT. The RNA was used for subsequent quantitative polymerase chain reaction (qPRC) gene expression of BMP-2 measured using hydrolysis probes (TAQMAN probes available from Applied Biosystems) as described further below.
Concentration and integrity of the obtained total RNA was assessed by absorbance in a spectrophotometer at 260 nm and 280 nm and by electrophoresis in 1% agarose with formaldehyde loading dye. For TAQMAN gene expression assays, cDNA was synthesized from 2 μg of total RNA using the High Capacity cDNA Reverse Transcription Kit (Applied Biosystems, product number 4368814), again following the protocol supplied with the kit. The resulting cDNA was diluted 1:10.
For TAQMAN gene expression, gene-specific fluorescent labeled TAQMAN primers for FAM-BMP2 (Applied Biosystems, product number Hs00154192.m1) and TAQMAN reference VIC-18S ribosomal RNA (Applied Biosystems, product number 4310893E) were used to target the gene of interest. A cocktail of universal master mix (Applied Biosystems, product number 4369016) was prepared individually for both set of primers which contained Taq Polymerase, dNTPs, and buffer. Template cDNA's were added separately to respective individual wells in triplicate samples. PCR was performed on StepOne Plus Real Time System instrument (Applied Biosystems). The amplification program consisted of 1 cycle of 95° C. with 10 minute hold (hot start) followed by 50 cycles of 95° C. with 15 second annealing hold and 1 minute 60° C. specified acquisition hold.
For human osteogenisis PCR array, total RNA was prepared using silica matrix purification using RNEASY MINI KIT (Qiagen, product number 74101) according to the manufacturer's recommendations. cDNA was synthesized from 1 μg of purified DNA-free RNA accordingly to RT^2First Strand Kit (SABiosciences, C-03). The resulting cDNA was diluted 1:30 and amplified. The procedure for the PCR array using real-time PCR is based on the RT^2 Profiler PCR array system instructions for Human Osteogenesis (SABiosciences, product number PAHS-026C). A cocktail reaction mix was setup as recommended by the PCR manufacturer (SABiosceiences, product number PA-012). PCR was performed using the same temperature parameters as used with the StepOne Plus Real Time System instrument. The Ct value of endogenous reference gene (i.e. 18s) was used to control for input RNA and then used to normalize target gene (i.e. BMP-2) tested from the same cDNA sample (Δ Ct), and then calibrated to an internal reference sample (ΔΔCt). Change in gene expression was determined by the expression 2̂-(ΔΔCt).
In addition, as alluded to above a similar methodology using 10 μmM and 100 μM of curcumin, 0.1 μM and 1 μM of bortezomib, and 0.1 μM and 1 μM of MG-132 proteasome inhibitors was performed.

[1] = 0.1 μM inhibitor, FIG. 24, non-treated approximately 1.50
[2] = 1 μM inhibitor, FIG. 24, non-treated approximately 1.50

SMILES	BMP-2/18S mRNA levels [1] [a.u.]	BMP-2/18S mRNA levels [2]	further results
CC(C)C[C@H](NC(=O)[C@H](Cc1ccccc1)NC(=O)c1cnccn1)B(O)O [bortezomib]	6.55	9.68 a.u.	
CC(C)C[C@@H](C=O)NC(=O)[C@H](CC(C)C)NC(=O)[C@H](CC(C)C)NC(=O)OCc1ccccc1 [MG132] (Cbz-Leu-Leu-Leu-aldehyde)	5.95	approximately 9.51 a.u.	
CC[C@H](C)[C@H](NC(=O)OCc1ccccc1)C(=O)N[C@@H](CCC(=O)OC(C)(C)C)C(=O)N[C@@H](C)C(=O)N[C@H](C=O)CC(C)C [PS-1, Z-Ile-Glu(OBu^t)-Ala-Leu-H] (Cbz-IE(OtBu)AL-aldehyde)			BMP-2/18S mRNA levels (0.1 μm PS-1, FIG. 22, non-treated control approximately 1.38): 9.01 au; BMP-2/18S mRNA levels (1.0 μm PS-1, FIG. 22, non-treated control approximately 1.38): 12.5 au
COc1cc(/C=C/C(=O)CC(=O)/C=C/c2ccc(O)c(OC)c2)ccc1O [curcumin]			BMP-2/18S mRNA levels (10 μM curcumin, FIG. 23, non-treated approximately 1.38): 2.87 a.u.; BMP-2/18S mRNA levels (100 μM curcumin, FIG. 23, non-treated approximately 1.38): 0.903 a.u.
